Assay: Ratio of Kcat versus Km was determined

Compound | Ratio
CN1CC=C(c2cccn2C)CC1 | 1800
CN1CC=C(c2ccc[nH]2)CC1 | 46

— ChEMBL document CHEMBL1132216, “Studies on the monoamine oxidase-B-catalyzed biotransformation of 4-azaaryl-1-methyl-1,2,3,6-tetrahydropyridine derivatives” (J Med Chem, 1999)
